Results as given in patent publication US11166922B2, “Method for treating hyperhidrosis with dexmecamylamine” (Atacama Therapeutics, Inc., priority 2014, dated 2021).

Tests used:
[1] = human, in vivo, po; cited from earlier work
sympathetic activities = assay: Dose-responses for inhibition of sympathetic activities at low and high firing frequency (FIG. 2); conditions: 1 Hz versus 10 Hz firing frequency
Description: This is believed due, in part, to the fact that TC-5214 potency will increase with frequency due to its slow off-rate kinetics. See FIG. 2, which illustrates a 10-fold shift to the left with increasing frequency. The effective dose range, therefore, is believed to be between 0.1 and 1 mg; with a top dose at 2 mg once per day, since sympathetic activity decreases at night in primary hyperhidrosis. […] The potency of TC-5214 shifts to the left (red/triangle curve) thereby reducing sweating due to overactive sympathetic but remain too low to induce inhibition of the parasympathetic and associated side effects, including urinary retention and constipation.

[2] = system: subjects with overactive bladder; assay type: in vivo, human
Description: Dexmecamylamine is a use-dependent potent inhibitor of the α3 nicotinic receptor subtype (e.g., α3β2 and α3β4). Such receptors are expressed in the urothelium and regulate bladder smooth muscle contraction. (Beckel et al., Expression of functional nicotinic acetylcholine receptors in rat urinary bladder epithelial cells, Am. J. Physiol. Renal Physiol. 290:F103-110, 2006). A clinical study was performed to evaluate the safety, tolerability, and efficacy of dexmecamylamine (TC-5214) for the treatment of Overactive Bladder (OAB). The study included a three- or five-week screening period, followed by a 12-week treatment period during which patients received either one of three doses of dexmecamylamine or placebo twice daily, randomized in a ratio of 2:1:1:1 (placebo, low dose, mid dose, high dose), with a two-week follow-up period. A total of 768 subjects with overactive bladder were randomized into the double-blind treatment period of the study. On Jul. 28, 2014, Targacept announced top-line results from the Phase 2b clinical trial of TC-5214 as a treatment for overactive bladder (OAB). […] See also, PCT Application No. […], which published as WO 2013/142162 A1.
As noted hereinabove, a clinical study was performed to evaluate the safety, tolerability, and efficacy of dexmecamylamine (TC-5214) for the treatment of Overactive Bladder (OAB). The study included a three- or five-week screening period, followed by a 12-week treatment period during which patients received either one of three doses of dexmecamylamine or placebo twice daily, randomized in a ratio of 2:1:1:1 (placebo, low dose, mid dose, high dose), with a two-week follow-up period. A total of 768 subjects with overactive bladder were randomized into the double-blind treatment period of the study. […] See also, PCT Application No. PCT/US2013/030640, which published as WO 2013/142162 A1.

[3] = Excretion of dexmecamylamine in urine; conditions: in vivo
Description: The exposure differential results in the ability of dexmecamylamine to target local nicotinic receptors in the urothelium that affect bladder contraction frequency while limiting systemic side effects. Consequently, the potential for dexmecamylamine to treat OAB through its action on nAChRs in the bladder urothelium warrants further investigation.

[4] = system: Major Depressive Disorder (MDD) subjects; assay type: in vivo, human
Description: More recently, dexmecamylamine was evaluated as adjunctive therapy in the treatment of major depressive disorder (MDD) in a large international Phase 3 depression program. […] More than 2400 subjects have received dexmecamylamine in double-blind or open-label studies.
No safety studies using dexmecamylamine have been performed in OAB. Phase 2 and Phase 3 clinical studies using dexmecamylamine in Major Depressive Disorder (MDD) have been conducted and completed. […] Briefly, in the fixed dose Phase 3 studies in MDD, at doses of 2 mg BID (the maximum doses to be studied in the OAB study), the most frequent treatment emergent adverse events that were reported more than 2% more commonly in the dexmecamylamine group compared to placebo group were: constipation (15.2% dexmecamylamine vs. 3.8% placebo): and dry mouth (7.0% dexmecamylamine vs. 1.3% placebo).

[5] = pre-clinical; see U.S. Pat. No. 7,101,916; cited from earlier work

SMILES	absorption from the gastrointestinal tract [1]	shift of potency (dose-response to the left) with increasing frequency (sympathetic activities)	micturition frequency per 24 hours (co-primary endpoint) ([2]; high dose, twice daily, after 12 weeks of treatment, p=0.033)	episodes of urinary incontinence per 24 hours (co-primary endpoint) ([2]; high dose, twice daily, after 12 weeks of treatment, p=0.379)	safety and tolerability ([2]; human, in vivo)	placebo corrected rate of constipation ([2]; human, in vivo, 12 weeks)	rate of urinary tract infection (placebo corrected) ([2]; human, in vivo, 12 weeks)	excretion in the urine [3]	efficacy in the treatment of depression ([4]; adjunctive therapy, Phase 3 depression program)	safety and tolerability ([4]; human, in vivo)	vital signs, blood or urine laboratory measurements, ECG conduction intervals, suicidality ([4]; human, in vivo)	safety profile versus mecamylamine and its R-isomer [5]
CNC1(C)C2CCC(C2)C1(C)C.Cl (racemic) [mecamylamine, N,2,3,3-tetramethylbicyclo[2.2.1]heptan-2-amine hydrochloride]	nearly complete absorption	–	–	–	–	–	–	–	–	–	–	–
CNC1(C)[C@H]2CCC(C2)C1(C)C (stereo in doubt) [TC-5214, (S)-N,2,3,3-tetramethylnorbornan-2-amine]	–	10 fold	statistically significant reduction	improvement that did not reach statistical significance	generally safe and well tolerated	15.1%	5.9%	excreted almost entirely unchanged in the urine	failed to demonstrate efficacy	generally safe and well-tolerated	no noteworthy differences	superior safety profile
